The term Papp A→B denotes how fast a substance crosses the layer from the apical side. By IC50 is commonly meant the midpoint of a concentration-inhibition curve. Read a high IC50 as weaker potency in that assay. What is called EC50 is the concentration needed to bring the measured effect to its halfway point. A higher EC50 goes with weaker potency. The bioavailability is dose-corrected exposure relative to a reference, in per cent. Read a low bioavailability as little systemic uptake. Usually CC50 stands for the concentration that lowers cell viability or growth by half. A low value points to harm at low concentration.

The nature of data set [1]: Apparent permeability from apical to basolateral side in human Caco-2 cells. Type of data set: ADME, cell-based. In general terms: Caco-2 cells form a polarised layer with tight junctions and transporters.
Data set [2] can be described thus: Inhibition of HCV NS3 protease. Details: species or system Hepacivirus hominis.
A further data set concerns Hepatitis C virus. Kind of data set: Antiviral activity against HCV in human HuH7 cells by replicon assay. Type of data set: functional, organism-based, Hepacivirus hominis. As to conditions: Huh-7. In general terms: Replicon systems follow genome replication, usually without infectious particles.
A short description of data set [3]: Oral bioavailability in dog at 2.7 mg/kg. Type of data set: ADME, organism-based, Canis lupus familiaris. Particulars: in vivo.
The nature of data set [4]: Cytotoxicity against human HuH7 cells. Type of data set: cell-based, Huh-7.
Data set [5] in a line: Apparent systemic clearance in dog at 1.1 mg/kg, iv relative to liver blood flow. Particulars: in vivo. Type of data set: ADME, organism-based, Canis lupus familiaris. Details: dose 1.1 mg/kg, route intravenous.

A value given as a limit tells only on which side of the number the result lay.

For the compound `C=CC1C[C@]1(NC(=O)[C@@H]1C[C@@H](Oc2cc(-c3csc(NC(C)C)n3)nc3cc(OC)ccc23)CN1C(=O)[C@@H](NC(=O)OC1CCCC1)C(C)(C)C)P(=O)(O)O` (stereo partly specified), in data set [1], the Papp A→B stood at 0.2 ×10⁻⁶ cm/s. Further, inhibition in data set [2] was half-maximal at 0.9 nM (IC50). Also, it took 92 nM to reach a half-maximal effect in the data set with Hepatitis C virus (EC50). The bioavailability in data set [3] was 1%. This compound came in with a CC50 in data set [4] of more than 50000 nM.

`C=CC1C[C@]1(NC(=O)[C@@H]1C[C@@H](Oc2cc(-c3csc(NC(C)C)n3)nc3cc(OC)ccc23)CN1C(=O)[C@@H](NC(=O)OC1CCCC1)C(C)(C)C)P(=O)(OCOC(=O)OCC)OCOC(=O)OCC` (stereo partly specified): in data set [5], the clearance is 28.3 mL/min/kg. The compound also registered a 50% inhibitory concentration (IC50) in data set [2] of 280 nM. Further, the concentration giving a half-maximal response (EC50) with Hepatitis C virus was found to be 39 nM.

In the case of `C=CC1C[C@]1(NC(=O)[C@@H]1C[C@@H](Oc2cc(-c3csc(NC(C)C)n3)nc3cc(OC)ccc23)CN1C(=O)[C@@H](NC(=O)OC1CCCC1)C(C)(C)C)P(=O)(O)OCC` (stereo partly specified), in data set [2], the IC50 was 7 nM. Also, the EC50 in the data set with Hepatitis C virus was found to be 360 nM. This compound came in with a 50% cytotoxic concentration (CC50) in data set [4] of more than 50000 nM.

For the compound `C=CC1C[C@]1(NC(=O)[C@@H]1C[C@@H](Oc2cc(-c3csc(NC(C)C)n3)nc3cc(OC)ccc23)CN1C(=O)[C@@H](NC(=O)OC1CCCC1)C(C)(C)C)P(=O)(OCOC(=O)OCC1CC1)OCOC(=O)OCC1CC1` (stereo partly specified), 85 nM corresponded to half-maximal inhibition in data set [2] (IC50). Also, the concentration giving a half-maximal response (EC50) in the data set on Hepatitis C virus turned out to be 41 nM.

Consider `C=CC1C[C@]1(NC(=O)[C@@H]1C[C@@H](Oc2cc(-c3csc(NC(C)C)n3)nc3cc(OC)ccc23)CN1C(=O)[C@@H](NC(=O)OC1CCCC1)C(C)(C)C)C(=O)O` (stereo partly specified), for which the IC50 in data set [2] worked out at 3 nM. The compound also registered an EC50 in the data set with Hepatitis C virus of 6 nM. In addition, the 50% cytotoxic concentration (CC50) in data set [4] is more than 50000 nM.

The values above are taken from ChEMBL document CHEMBL1136999, “Discovery of novel phosphonate derivatives as hepatitis C virus NS3 protease inhibitors” (Bioorg Med Chem Lett, 2009).
